From patent US20200360520A1, “USE OF RIFAMYCIN-QUINOLIZIDONE COUPLING MOLECULE” (priority 2019, published 2020)
In brackets after ≈: the same amount, converted by molar mass. Where two headings read alike, the source gives them in different places.

How the values were obtained:
Assay type in all cases: cell-based
[1] = tested on: Mycobacterium intracellulare; assay: MIC by micro broth dilution method (resazurin microtiter assay); conditions: for MIC: Mycobacterium intracellulare, MH Culture Medium, read-out: Minimum Inhibitory Concentration (MIC)
[2] = tested on: Mycodacterium chelonei; assay: as above; conditions: MH Culture Medium; Chelonei (standard strain); read-out: Minimum Inhibitory Concentration (MIC)
[3] = tested on: Mycobacterium abscessus; assay: as above; conditions: Mycobacteroides abscessus, read-out: Minimum Inhibitory Concentration (MIC)
[4] = tested on: Mycobacterium abscessus; assay: MBC test (plating on agar, CFU count); conditions: for Minimum Bactericidal Concentration (MBC): MH Culture Medium; for MBC: Mycobacteroides abscessus, 7H9 Culture Medium, read-out: Minimum Bactericidal Concentration (MBC)
[5] = tested on: Mycobacterium avium; assay: MIC by micro broth dilution method (resazurin microtiter assay); conditions: read-out: Minimum Inhibitory Concentration (MIC)
[6] = tested on: Mycobacterium fortuitum; assay: as above; conditions: Mycolicibacterium fortuitum, MH Culture Medium, read-out: Minimum Inhibitory Concentration (MIC)
[7] = tested on: Mycobacterium kansasii; assay: MBC test (plating on agar, CFU count); conditions: for MBC: Mycobacterium kansasii, read-out: Minimum Bactericidal Concentration (MBC)
[8] = tested on: Mycobacterium massiliense; assay: MIC by micro broth dilution method (resazurin microtiter assay); conditions: Mycobacteroides abscessus, MH Culture Medium, read-out: Minimum Inhibitory Concentration (MIC)
[9] = tested on: Mycobacterium kansasii; assay: as above; conditions: for MIC: Mycobacterium kansasii, read-out: Minimum Inhibitory Concentration (MIC)
[10] = tested on: Mycobacterium avium; assay: MBC test (plating on agar, CFU count); conditions: for MBC: Mycobacterium avium, read-out: Minimum Bactericidal Concentration (MBC)
[11] = Intracellulare (standard strain)
[12] = clinically isolated strain Intracellulare (S90)
[13] = clinically isolated strain Intracellulare (S261)
[14] = clinically isolated strain Intracellulare (S269)
[15] = clinically isolated strain Intracellulare (S290)
[16] = clinically isolated strain Intracellulare (S291)
[17] = clinically isolated strain Intracellulare (S298)
[18] = clinically isolated strain Intracellulare (S541)
[19] = clinically isolated strain Intracellulare (S623)
[20] = clinically isolated strain Intracellulare (ZPS)
[21] = clinically isolated strain intracellulare (S442)
[22] = 7H9 Broth, Mycobacterium avium Rough
[23] = 7H9 Broth, Mycobacterium avium Smooth
[24] = MH Broth, Mycobacterium avium Rough
[25] = MH Broth, Mycobacterium avium Smooth
[26] = MH Culture Medium, Avium (standard strain)
[27] = MH Culture Medium, clinically isolated strain Avium (S31)
[28] = MH Culture Medium, clinically isolated strain Avium (S123)
[29] = MH Culture Medium, clinically isolated strain Avium (S559)
[30] = MH Culture Medium, clinically isolated strain Avium (S568)
[31] = MH Culture Medium, clinically isolated strain Avium (S577)
[32] = MH Culture Medium, clinically isolated strain Avium (S597)
[33] = MH Culture Medium, clinically isolated strain Avium (S602)
[34] = clinically isolated strain Fortuitum (S103)
[35] = clinically isolated strain Fortuitum (S111)
[36] = clinically isolated strain Massiliense (D10)
[37] = clinically isolated strain Massiliense (D14)
[38] = clinically isolated strain Massiliense (D18)
[39] = MH Culture Medium, Kansasii (standard strain)
[40] = MH Culture Medium, clinically isolated strain Kansasii (S9)
[41] = MH Culture Medium, clinically isolated strain Kansasii (S199)
[42] = MH Culture Medium, clinically isolated strain Kansasii (S520)
[43] = MH Culture Medium, clinically isolated strain Kansasii (S609)
[44] = 7H9 Culture Medium, Mycobacterium avium Rough
[45] = 7H9 Culture Medium, Mycobacterium avium Smooth
[46] = MH Culture Medium, Mycobacterium avium Smooth

## CO[C@H]1/C=C/O[C@@]2(C)Oc3c(C)c(O)c4c(O)c(c(/C=N/N5CCN(C)CC5)c(O)c4c3C2=O)NC(=O)/C(C)=C\C=C\[C@H](C)[C@H](O)[C@@H](C)[C@@H](O)[C@@H](C)[C@H](OC(C)=O)[C@@H]1C [Rifampicin, rifampicin]
[1]; [11]
  MIC: 0.25 µg/mL (≈ 0.304 µM)
[1]; [12]
  MIC: 8 µg/mL (≈ 9.72 µM)
[1]; [13]
  MIC: 16 µg/mL (≈ 19.4 µM)
[1]; [14]
  MIC: 4 µg/mL (≈ 4.86 µM)
[1]; [15]
  MIC: 4 µg/mL (≈ 4.86 µM)
[1]; [16]
  MIC: 4 µg/mL (≈ 4.86 µM)
[1]; [17]
  MIC: 4 µg/mL (≈ 4.86 µM)
[1]; [18]
  MIC: 16 µg/mL (≈ 19.4 µM)
[1]; [19]
  MIC: 8 µg/mL (≈ 9.72 µM)
[1]; [20]
  MIC: 2 µg/mL (≈ 2.43 µM)
[1]; [21]
  MIC: 2 µg/mL (≈ 2.43 µM)
[2]
  MIC: > 64 µg/mL
[3]; 7H9 Broth
  MIC: > 64 µg/mL
[3]; MH Broth
  MIC: > 64 µg/mL
[4]
  Minimum Bactericidal Concentration (MBC): >64 µg/mL
  MBC: > 64 µg/mL
[5]; [22]
  MIC: 8 µg/mL (≈ 9.72 µM)
[5]; [23]
  MIC: 0.5 µg/mL (≈ 0.608 µM)
[5]; [24]
  MIC: 8 µg/mL (≈ 9.72 µM)
[5]; [25]
  MIC: 1 µg/mL (≈ 1.22 µM)
[5]; [26]
  MIC: 0.25 µg/mL (≈ 0.304 µM)
[5]; [27]
  MIC: 0.0625 µg/mL (≈ 0.0759 µM)
[5]; [28]
  MIC: 8 µg/mL (≈ 9.72 µM)
[5]; [29]
  MIC: 0.125 µg/mL (≈ 0.152 µM)
[5]; [30]
  MIC: 4 µg/mL (≈ 4.86 µM)
[5]; [31]
  MIC: 0.125 µg/mL (≈ 0.152 µM)
[5]; [32]
  MIC: 8 µg/mL (≈ 9.72 µM)
[5]; [33]
  MIC: 2 µg/mL (≈ 2.43 µM)
[6]; Fortuitum (standard strain)
  MIC: > 64 µg/mL
[6]; [34]
  MIC: > 64 µg/mL
[6]; [35]
  MIC: 64 µg/mL (≈ 77.8 µM)
[7]; 7H9 Culture Medium
  MBC: 4 µg/mL (≈ 4.86 µM)
[7]; MH Culture Medium
  MBC: 4 µg/mL (≈ 4.86 µM)
[8]; [36]
  MIC: > 64 µg/mL
[8]; [37]
  MIC: > 64 µg/mL
[8]; [38]
  MIC: > 64 µg/mL
[9]; 7H9 Broth
  MIC: 16 µg/mL (≈ 19.4 µM)
[9]; MH Broth
  MIC: 16 µg/mL (≈ 19.4 µM)
[9]; [39]
  MIC: 0.125 µg/mL (≈ 0.152 µM)
[9]; [40]
  MIC: 0.125 µg/mL (≈ 0.152 µM)
[9]; [41]
  MIC: 0.0625 µg/mL (≈ 0.0759 µM)
[9]; [42]
  MIC: 0.0625 µg/mL (≈ 0.0759 µM)
[9]; [43]
  MIC: 0.0625 µg/mL (≈ 0.0759 µM)
[10]; [44]
  MBC: > 64 µg/mL
[10]; [45]
  MBC: 4 µg/mL (≈ 4.86 µM)
[10]; [46]
  MBC: 4 µg/mL (≈ 4.86 µM)

## CO[C@H]1/C=C/O[C@@]2(C)Oc3c(C)c(O)c4c(O)c(c(/C=N/N5CCC(N(C)C6([C@@H]7CCN(c8c(F)cn9c(=O)c(C(=O)O)cc(C%10CC%10)c9c8C)C7)CC6)CC5)c(O)c4c3C2=O)NC(=O)/C(C)=C\C=C\[C@H](C)[C@H](O)[C@@H](C)[C@@H](O)[C@@H](C)[C@H](CC(C)=O)[C@@H]1C [Compound I]
[1]; [11]
  MIC: 0.5 µg/mL (≈ 0.415 µM)
[1]; [12]
  MIC: 64 µg/mL (≈ 53.2 µM)
[1]; [13]
  MIC: 64 µg/mL (≈ 53.2 µM)
[1]; [14]
  MIC: > 64 µg/mL
[1]; [15]
  MIC: 64 µg/mL (≈ 53.2 µM)
[1]; [16]
  MIC: 64 µg/mL (≈ 53.2 µM)
[1]; [17]
  MIC: 64 µg/mL (≈ 53.2 µM)
[1]; [18]
  MIC: 32 µg/mL (≈ 26.6 µM)
[1]; [19]
  MIC: 64 µg/mL (≈ 53.2 µM)
[1]; [20]
  MIC: 32 µg/mL (≈ 26.6 µM)
[1]; [21]
  MIC: 32 µg/mL (≈ 26.6 µM)
[1]; against Mycobacterium intracellulare
  activity, in words: weak
[2]
  MIC: 64 µg/mL (≈ 53.2 µM)
[3]; 7H9 Broth
  MIC: 1 µg/mL (≈ 0.831 µM)
[3]; MH Broth
  MIC: 1 µg/mL (≈ 0.831 µM)
[4]
  Minimum Bactericidal Concentration (MBC): 1 µg/mL
  MBC: 1 µg/mL (≈ 0.831 µM)
[5]; [22]
  MIC: > 64 µg/mL
[5]; [23]
  MIC: 4 µg/mL (≈ 3.32 µM)
[5]; [24]
  MIC: > 64 µg/mL
[5]; [25]
  MIC: 4 µg/mL (≈ 3.32 µM)
[5]; [26]
  MIC: 1 µg/mL (≈ 0.831 µM)
[5]; [27]
  MIC: 0.25 µg/mL (≈ 0.208 µM)
[5]; [28]
  MIC: 8 µg/mL (≈ 6.65 µM)
[5]; [29]
  MIC: 0.25 µg/mL (≈ 0.208 µM)
[5]; [30]
  MIC: 32 µg/mL (≈ 26.6 µM)
[5]; [31]
  MIC: 0.125 µg/mL (≈ 0.104 µM)
[5]; [32]
  MIC: > 64 µg/mL
[5]; [33]
  MIC: 8 µg/mL (≈ 6.65 µM)
[6]; Fortuitum (standard strain)
  MIC: 64 µg/mL (≈ 53.2 µM)
[6]; [34]
  MIC: > 64 µg/mL
[6]; [35]
  MIC: > 64 µg/mL
[7]; 7H9 Culture Medium
  MBC: 2 µg/mL (≈ 1.66 µM)
[7]; MH Culture Medium
  MBC: 2 µg/mL (≈ 1.66 µM)
[7]; against mycobacterium kansasii
  bactericidal activity (MBC) compared with controls, in words: higher than or much higher than that of all other tested antibiotic drugs
[8]; [36]
  MIC: > 64 µg/mL
[8]; [37]
  MIC: > 64 µg/mL
[8]; [38]
  MIC: > 64 µg/mL
[9]; 7H9 Broth
  MIC: 2 µg/mL (≈ 1.66 µM)
[9]; MH Broth
  MIC: 2 µg/mL (≈ 1.66 µM)
[9]; [39]
  MIC: 0.0625 µg/mL (≈ 0.0519 µM)
[9]; [40]
  MIC: 0.25 µg/mL (≈ 0.208 µM)
[9]; [41]
  MIC: 0.0625 µg/mL (≈ 0.0519 µM)
[9]; [42]
  MIC: 0.0625 µg/mL (≈ 0.0519 µM)
[9]; [43]
  MIC: 0.0625 µg/mL (≈ 0.0519 µM)
[9]; against mycobacterium kansasii
  activity compared with controls, in words: much higher than that of rifampicin, ciprofloxacin and metronidazole
[10]; [44]
  MBC: > 64 µg/mL
[10]; [45]
  MBC: 16 µg/mL (≈ 13.3 µM)
[10]; MH Culture Medium, Mycobacterium avium Rough
  MBC: > 64 µg/mL
[10]; [46]
  MBC: 16 µg/mL (≈ 13.3 µM)
[10]; against smooth type strain of Mycobacterium avium
  bactericidal activity (MBC), in words: had an activity
